In publication PMC5063576, “High Potency VEGFRs/MET/FMS Triple Blockade by TAS-115 Concomitantly Suppresses Tumor Progression and Bone Destruction in Tumor-Induced Bone Disease Model with Lung Carcinoma Cells” (PLoS ONE, 2016):

How the values were obtained:
[1] = tested on: A549-Luc-BM1 cells in the mouse tibia; experiment: Tumor-induced bone disease model, intra-tibial A549-Luc-BM1, bioluminescence imaging; assay type: in vivo, BALB/c nude mice; conditions: for tumor growth inhibition percentage (TGI): day 28, 4 weeks, oral once daily TAS-115 200 mg/kg, cabozantinib 15 mg/kg, sunitinib 40 mg/kg, crizotinib 100 mg/kg, ZA 0.2 mg/kg s.c. twice weekly
Procedure: Tumor growth in the tibiae was monitored by bioluminescence imaging using an IVIS Lumina II Imaging System (PerkinElmer, MA). […] Images were analyzed using the Living Image 3.1 software (PerkinElmer). Total photon flux (TP) was calculated by summation of the photon flux of ventral and right lateral images. One week post tumor implantation, 8–9 animals were allocated to each experimental group by a stratified randomization method with SAS version 9.2 (SAS Institute Japan, Tokyo, Japan) using TP as an allocation parameter, following which drug treatment was then started. […] The doses of each drug were selected based on the maximum tolerated dose (MTD) in in-house studies (data not shown). […] Zoledronic acid (ZA) was subcutaneously injected twice weekly for 4 weeks at a dose of 0.2 mg/kg, which was a previously reported efficacious dose. The allocation day was set as day 0, and drug administration was initiated from day 1. As an indicator of changes in tumor growth during the dosing period, relative total photon flux (RTP), was calculated according to the following formula: RTPday n = (TP on each measurement day) / (TPday 0) × 100. TPday 0 is the TP on the allocation day.

[2] = tested on: A549-Luc-BM1-implanted tibia; experiment: Bone morphometrical analyses by micro-CT; assay type: in vivo, BALB/c nude mice; conditions: for A549-Luc-BM1-induced changes in bone parameters (BV, TV, BMD, vBMD): micro-CT after 4 weeks dosing, TAS-115 200, cabozantinib 15, sunitinib 40, crizotinib 100 mg/kg oral, vs control
Procedure: On day 29, the mice were euthanized by cervical dislocation under isoflurane anesthesia, and subsequently the A549-Luc-BM1-implanted tibia was removed and was fixed in 4% paraformaldehyde solution. Micro-CT imaging was performed by using Rm_CT2 (Rigaku corporation, Tokyo, Japan) with the following parameters: 90 kV, 160 μA, 3 min exposure, 10 mm field of view (20 μm voxel size). After scanning, 3D reconstruction was performed to produce a series of cross-sectional images by using specific software (3D Viewer Version 3.00.01, Rigaku corporation). In addition, bone mineral density (BMD) and 3D morphometrical primary parameters, including total volume (TV) and bone volume (BV), were calculated by using bone microstructure software (TRI/3D-BON-FCS64, Ratoc System Engineering, Tokyo, Japan). Volumetric BMD (vBMD), which has been reported to be a good index of osteoporosis, was calculated from primary parameters using the following formula: vBMD = BMD × BV / TV.

[3] = tested on: M-CSF dependent bone marrow macrophages (MDBMs); experiment: In vitro osteoclast differentiation assay (TRAP activity); assay type: cell-based, mouse; conditions: MDBMs with hM-CSF and rhsRANKL for 4 days
Procedure: To prepare macrophage colony-stimulating factor (M-CSF) dependent bone marrow macrophages (MDBMs), bone marrow cells were obtained from the femurs of male BALB/c mice (CLEA Japan) and adherent cells were cultured with human M-CSF (hM-CSF; 10000 U/mL) for 6 days. MDBMs were collected and cultured with hM-CSF (10000 U/mL) and recombinant human soluble RANKL (rhsRANKL)-GST (5 nM) for 4 days (25000 cells/well in a 96 well flat plate) for induction of differentiation into osteoclasts. Test compounds were then added to the culture media at the indicated concentration. TRAP activities were measured using the commercially available TRACP and ALP Assay Kit (TAKARA BIO INC).

[4] = Body weight change in the bone disease model; assay type: in vivo, BALB/c nude mice; conditions: 4 weeks of treatment; TAS-115 200 mg/kg, crizotinib 100 mg/kg, sunitinib 40 mg/kg with crizotinib 100 mg/kg, oral once daily
Procedure: Changes in body weight (BW) during the dosing period were determined using body weight change (BWC; %) as an indicator, which was calculated using the following formula: BWC; % = 100 × ((BW on each measurement day)–(BWday 0)) / (BWday 0). BWday 0 is the BW on the allocation day. The schedule for the in vivo study is depicted in the Supporting Information (S1 Fig).

[5] = tested on: FMS, ERK1/2 and AKT phosphorylation in MDBMs; experiment: In vitro MDBM signaling, M-CSF-stimulated FMS phosphorylation; assay type: cell-based, mouse; conditions: Western blotting, cabozantinib, crizotinib at 0.3 μM, sunitinib positive control compared with TAS-115
Procedure: For analysis of the expression and phosphorylation levels of FMS, MET and VEGFR2, MDBMs were cultured with hM-CSF (20000 U/mL) for 4 days (400000 cells/dish in Suspension Culture Dishes (Corning Inc., NY). The phosphorylation levels of FMS and downstream signaling molecules were then analyzed in these MDBMs following incubation for 1 hr with test compounds at the indicated concentration. The phosphorylation of MET or VEGFR2 was analyzed in these MDBMs following stimulation with rhHGF (100 ng/mL, 10 min) or rhVEGF (100 ng/mL, 5 min), respectively. After incubation, the MDBMs were harvested, the cells were lysed and target signaling proteins were detected by immunoblotting. For analysis of VEGFR2 and its phosphorylated form, the lysate was immunoprecipiated with an anti-VEGFR antibody prior to immunoblotting.

[6] = tested on: A549-Luc-BM1-implanted tibiae; experiment: CD31 staining, microvessel density in bone lesion; assay type: in vivo, BALB/c nude mice; conditions: 2 weeks oral; TAS-115 100 mg/kg, cabozantinib 15, crizotinib 100, sunitinib 40 mg/kg; vs control
Procedure: (§1) On day 15, the mice were euthanized by cervical dislocation under isoflurane anesthesia, and their tibiae were collected. For CD31 staining, frozen sections (3 μm thick) were prepared using Kawamoto’s film method. Purified Rat Anti-Mouse CD31 (1:100, BD Pharmingen^TM) was detected using Simple Stain^TM Mouse MAX PO (Rat) (Nichirei) and 3,3’-diaminobenzidine (Dako, Glostrup, Denmark). For Ki-67 and TRAP staining, formalin-fixed paraffin-embedded sections (2 μm thick) were prepared. Anti-human Ki-67 Rabbit Monoclonal Antibody (1:50, Epitomics) was detected using the EnVisionTM^+ System (Dako). TRAP staining was performed using the TRAP/ALP Stain Kit (Wako Pure chemical Industries, Ltd.). To quantify each staining, whole slides were scanned under 20× magnification with the Aperio Scan-Scope XT Slide Scanner (Aperio Technologies, Inc., CA). To quantify CD31-positive microvessels as microvessel density (MVD, number/mm^2), four fields of tumor area per section excluding bone and necrotic tissue were analyzed by using Image-Pro Plus (Media Cybernetics, Inc., Carlsbad, CA). The mean values of the four areas were considered as the MVD of each animal. […] Ki-67-positive cells and total tumor cells were counted by using Image-Pro Plus. The Ki-67 index is expressed as a percentage (the number of Ki-67-positive tumor cells / the total number of the tumor cells × 100). The numbers of TRAP-positive osteoclasts were counted, and are expressed as the TRAP-positive osteoclast labeling index, (the number of TRAP-positive cells / the length of the boundary between tumor and trabecular bone (number/mm)). Cells that were TRAP-positive, had more than one nucleus, and were found on the surface of the bone, were identified as osteoclasts. The boundary length was calculated by Image-Pro Plus. All histopathological analyses were conducted in a blinded manner.

A549-Luc-BM1 cells = experiment: Proliferation of A549-Luc-BM1 cells (CellTiter-Glo); assay type: cell-based; conditions: Homo sapiens, 72 hr post drug addition, read-out: 50% growth inhibitory concentration (GI50) for A549-Luc-BM1 cells
Procedure: Supplementary file pone.0164830.s002.tif: S2 Fig The effect of TAS-115 on the proliferation of A549-Luc-BM1 cells. A549-Luc-BM1 cells were seeded on 96 well plates at a density of 10^3 cells/well in RPMI1640 containing 10% FBS. […] At 72 hr post drug addition, cell viability was determined using CellTiter-Glo^TM. The 50% growth inhibition (GI50) values were determined using SAS version 9.2. (TIF) Click here for additional data file.

[7] = tested on: TRAP-positive osteoclasts at tumor-bone boundary; experiment: TRAP staining of A549-Luc-BM1-implanted tibiae, osteoclast number; assay type: in vivo, BALB/c nude mice; conditions: 2 weeks oral; TAS-115 200, cabozantinib 15, sunitinib 40, crizotinib 100 mg/kg, combination; vs control
Procedure: as §1, with “CA).” for “CA). The mean values of the four areas were considered as the MVD of each animal.”, “The numbers of TRAP-positive osteoclasts were counted, and are expressed as the TRAP-positive osteoclast labeling index, (the number of TRAP-positive cells / the length of the boundary between tumor and trabecular bone (number/mm)). Cells that were TRAP-positive, had more than one nucleus, and were found on the surface of the bone, were identified as osteoclasts.” left out, “All histopathological analyses were conducted in a blinded manner.” left out

[8] = molecular target: T1, Recombinant human FMS dephosphorylated with lambda phosphatase (dephospho-rhFMS) (Homo sapiens, UniProt P07333); experiment: In vitro kinase assay, recombinant dephospho-FMS (LANCE Ultra TR-FRET); assay type: biochemical; conditions: 100 μM ATP
T1 sequence (P07333 538-972): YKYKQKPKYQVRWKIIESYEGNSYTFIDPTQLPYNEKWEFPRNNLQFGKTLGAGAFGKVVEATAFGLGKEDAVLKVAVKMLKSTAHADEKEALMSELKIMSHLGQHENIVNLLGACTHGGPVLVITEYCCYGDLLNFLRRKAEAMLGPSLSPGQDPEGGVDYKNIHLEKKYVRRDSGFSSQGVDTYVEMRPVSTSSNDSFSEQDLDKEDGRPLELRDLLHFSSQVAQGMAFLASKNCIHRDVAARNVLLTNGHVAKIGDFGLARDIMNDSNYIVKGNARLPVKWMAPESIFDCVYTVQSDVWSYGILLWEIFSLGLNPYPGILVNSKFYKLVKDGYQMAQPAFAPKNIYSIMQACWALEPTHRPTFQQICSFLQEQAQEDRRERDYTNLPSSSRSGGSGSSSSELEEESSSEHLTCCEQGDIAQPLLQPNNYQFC
Procedure: Enzyme inhibition studies were performed using LANCE® Ultra TR-FRET assay technology. Briefly, 0.03 μg/mL dephospho-rhFMS and 100 nM ULightTM-poly GT (4:1) (PerkinElmer) were mixed and incubated for 40 min at 25°C in 10 μL of reaction mixture containing 100 μM ATP, 15 mM tris (hydroxymethyl) aminomethane (Tris (pH 7.5)), 0.01% (v/v) Tween 20, 5 mM MgCl2, 2 mM dithiothreitol and various concentrations of the test compound. […] By referring to the TR-FRET signals of positive (no inhibitor) and negative (EDTA was added before the reaction was started) control wells, the percent inhibition of each well was calculated and the half-maximal inhibitory concentration (IC50) value was determined using a four-parameter sigmoidal equation. The assay of MET and VEGFR2 kinase activity was performed as described previously.

Compound	tumor growth inhibition percentage (TGI) [1]	total volume (TV) compared with the control group ([2]; micro-CT, ZA 0.2 mg/kg s.c. twice weekly for 4 weeks)	BMD, BV, and vBMD compared with control ([2]; micro-CT, ZA 0.2 mg/kg s.c. twice weekly for 4 weeks, each value higher than normal group)	concentration that potently inhibited / markedly affected RANKL and M-CSF-induced mouse osteoclast formation [3]	effect on body weight [4]	inhibition of M-CSF-stimulated phosphorylation of FMS, ERK1/2 and AKT (in words) [5]	effect on tumor growth in the tibia (bioluminescence) ([1]; crizotinib 100 mg/kg oral once daily for 4 weeks)	microvessel density (MVD) within the tumor area in the bone lesion [6]	GI50 (A549-Luc-BM1 cells)	A549-Luc-BM1-induced changes in bone parameters (BV, TV, BMD, vBMD) [2]	number of TRAP-positive osteoclasts at tumor-bone boundary [7]	IC50 [8]
O=P(O)(O)C(O)(Cn1ccnc1)P(=O)(O)O [ZA, zoledronic acid]	27%	significantly decreased	significantly increased									
C[C@@H](Oc1cc(-c2cnn(C3CCNCC3)c2)cnc1N)c1c(Cl)ccc(F)c1Cl [Crizotinib]				1 µM	did suppress body weight gain	moderate	did not impact on tumor growth at all	did not affect	1100 nM	did not affect any changes in the parameters		
COc1cc2nccc(Oc3ccc(NC(=O)C4(C(=O)Nc5ccc(F)cc5)CC4)cc3)c2cc1OC [Cabozantinib]	73%					moderate		significantly reduced		significantly suppressed all of the changes	did not affect	79 nM
CCN(CC)CCNC(=O)c1c(C)[nH]c(/C=C2\C(=O)Nc3ccc(F)cc32)c1C [Sunitinib]	75%					comparable		significantly reduced		significantly inhibited A549-Luc-BM1-induced changes in BV and TV, but not in BMD or vBMD		
